The results in this text go back to patent publication US8778928B2 (priority 2009, dated 2014).

Counter-ions that a name gives are not always drawn.

The target of the test is α7-subtype of nicotinic receptors (Rattus norvegicus, UniProt Q05941). As to the kind of experiment: biochemical. It is filed as binding.
α7-subtype of nicotinic receptors, sequence (Q05941 23-502): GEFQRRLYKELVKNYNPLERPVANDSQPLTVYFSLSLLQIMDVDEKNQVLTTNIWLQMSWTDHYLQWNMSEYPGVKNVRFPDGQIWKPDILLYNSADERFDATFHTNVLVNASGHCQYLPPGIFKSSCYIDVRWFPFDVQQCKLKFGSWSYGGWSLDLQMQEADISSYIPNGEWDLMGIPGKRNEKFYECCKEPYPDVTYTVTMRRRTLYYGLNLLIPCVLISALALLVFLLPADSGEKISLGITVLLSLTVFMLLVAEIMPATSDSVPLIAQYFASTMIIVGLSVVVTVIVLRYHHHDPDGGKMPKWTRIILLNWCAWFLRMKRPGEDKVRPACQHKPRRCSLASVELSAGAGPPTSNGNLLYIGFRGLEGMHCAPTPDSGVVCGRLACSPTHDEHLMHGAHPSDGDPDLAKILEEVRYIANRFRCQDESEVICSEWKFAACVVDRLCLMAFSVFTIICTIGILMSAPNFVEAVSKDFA
For `c1cc2ccc(-c3nnc(N4CCN5CCC4CC5)o3)cc2[nH]1` [Compound A3, 2-(1,4-diazabicyclo[3.2.2]nonan-4-yl)-5-(1H-indol-6-yl)-1,3,4-oxadiazole free base], the IC50 turned out to be 0.016 µM.

`FCCn1ccc2ccc(-c3nnc(N4CCN5CCC4CC5)o3)cc21` [Compound A2, 4-{5-[1-(2-Fluoro-ethyl)-1H-indol-6-yl]-[1,3,4]oxadiazol-2-yl}-1,4-diaza-bicyclo[3.2.2]nonane fumaric acid salt] showed an IC50 of 0.0042 µM. The same measure for `CC(C)n1ccc2ccc(-c3nnc(N4CCN5CCC4CC5)o3)cc21` [Compound A4, 2-(1,4-diazabicyclo[3.2.2]nonan-4-yl)-5-(1-isopropylindol-6-yl)-1,3,4-oxadiazole free base]: 0.039 µM; for `CCn1ccc2ccc(-c3nnc(N4CCN5CCC4CC5)o3)cc21` [Compound A5, 2-(1,4-diazabicyclo[3.2.2]nonan-4-yl)-5-(1-ethylindol-6-yl)-1,3,4-oxadiazole fumaric acid salt]: 0.003 µM.

`Cn1ccc2ccc(-c3nnc(N4CCN5CCC4CC5)o3)cc21` [Compound A1, 4-[5-(1-Methyl-1H-indol-6-yl)-[1,3,4]oxadiazol-2-yl]-1,4-diaza-bicyclo[3.2.2]nonane fumaric acid salt] had a half-maximal inhibitory concentration (IC50) of 0.011 µM.

As a reminder, the IC50 is the concentration that inhibits the measured activity by half. Higher therefore signals lower potency.
